Reference: article PMC8261786 (Chemical Science, 2021)

Columns and labels:
S. epidermidis = experiment: Bacterial growth assay, S. epidermidis; assay type: cell-based, Staphylococcus epidermidis (ATCC 14990); details: amyloid peptides 25 μM
SH-SY5Y cells [1] = experiment: LDH membrane leakage, SH-SY5Y; assay type: cell-based, human; details: 25 μM amyloid, 24 h, n = 3
SDS-PAGE = assay type: physicochemical; details: 25 μM amyloid peptide alone; for size of monomers and oligomers (SDS-PAGE): 1–2 h; for size of large aggregates (SDS-PAGE): 24 h
[2] = system: E. coli, P. aeruginosa, S. aureus and S. epidermidis; experiment: Bacterial growth assay, four strains together; assay type: cell-based; details: hCT 25 μM, growth profiles
SH-SY5Y cells [3] = experiment: MTT cell viability, SH-SY5Y; assay type: cell-based, human; details: 25 μM amyloid, 24 h, n = 3
RIN-5fm cells [4] = experiment: LDH membrane leakage, RIN-5fm; assay type: cell-based, rat; details: 25 μM hIAPP, 24 h, n = 3
RIN-5fm cells [5] = experiment: MTT cell viability, RIN-5fm; assay type: cell-based, rat; details: 25 μM hIAPP, 24 h, n = 3

SMILES | susceptibility of S. epidermidis (S. epidermidis) | membrane leakage (LDH activity), amyloid alone (SH-SY5Y cells [1]) | size of monomers and oligomers (SDS-PAGE) (SDS-PAGE) | size of large aggregates (SDS-PAGE) (SDS-PAGE) | growth inhibition [2] | cell viability, amyloid alone (SH-SY5Y cells [3]) | membrane leakage (LDH activity), amyloid alone (RIN-5fm cells [4]) | cell viability, amyloid alone (RIN-5fm cells [5])
CC[C@H](C)[C@H](NC(=O)[C@H](C)NC(=O)[C@@H](NC(=O)[C@H](CCC(N)=O)NC(=O)[C@@H]1CCCN1C(=O)[C@H](Cc1ccccc1)NC(=O)[C@@H](NC(=O)[C@H](Cc1c[nH]cn1)NC(=O)[C@H](Cc1ccccc1)NC(=O)[C@H](CCCCN)NC(=O)[C@H](CC(N)=O)NC(=O)[C@H](Cc1ccccc1)NC(=O)[C@H](CC(=O)O)NC(=O)[C@H](CCC(N)=O)NC(=O)[C@@H](NC(=O)[C@H](Cc1ccc(O)cc1)NC(=O)[C@@H](NC(=O)CNC(=O)[C@H](CC(C)C)NC(=O)[C@H](CCSC)NC(=O)[C@@H]1CSSC[C@H](N)C(=O)NCC(=O)N[C@@H](CC(N)=O)C(=O)N[C@@H](CC(C)C)C(=O)N[C@@H](CO)C(=O)N[C@@H]([C@@H](C)O)C(=O)N1)[C@@H](C)O)[C@@H](C)O)[C@@H](C)O)[C@@H](C)O)C(=O)NCC(=O)N[C@H](C(=O)NCC(=O)N[C@@H](C)C(=O)N1CCC[C@H]1C(N)=O)C(C)C [hCT, human calcitonin 1–32] | not susceptible | 26% | 5–15 kDa | > 25 kDa | only inhibited the growth of P. aeruginosa | 69% | – | –
CC[C@H](C)[C@H](NC(=O)[C@H](C)NC(=O)CNC(=O)[C@H](Cc1ccccc1)NC(=O)[C@H](CC(N)=O)NC(=O)[C@H](CC(N)=O)NC(=O)[C@H](CO)NC(=O)[C@H](CO)NC(=O)[C@H](Cc1c[nH]cn1)NC(=O)[C@@H](NC(=O)[C@H](CC(C)C)NC(=O)[C@H](Cc1ccccc1)NC(=O)[C@H](CC(N)=O)NC(=O)[C@H](C)NC(=O)[C@H](CC(C)C)NC(=O)[C@H](CCCNC(=N)N)NC(=O)[C@H](CCC(N)=O)NC(=O)[C@@H](NC(=O)[C@H](C)NC(=O)[C@@H]1CSSC[C@H](NC(=O)[C@@H](N)CCCCN)C(=O)N[C@@H](CC(N)=O)C(=O)N[C@@H]([C@@H](C)O)C(=O)N[C@@H](C)C(=O)N[C@@H]([C@@H](C)O)C(=O)N1)[C@@H](C)O)C(C)C)C(=O)N[C@@H](CC(C)C)C(=O)N[C@@H](CO)C(=O)N[C@@H](CO)C(=O)N[C@H](C(=O)N[C@@H](CC(N)=O)C(=O)N[C@H](C(=O)NCC(=O)N[C@@H](CO)C(=O)N[C@@H](CC(N)=O)C(=O)N[C@H](C(=O)N[C@@H](Cc1ccc(O)cc1)C(N)=O)[C@@H](C)O)C(C)C)[C@@H](C)O [hIAPP, human islet amyloid polypeptide 1–37] | not susceptible | – | 5–15 kDa | > 25 kDa | – | – | 36% | 58%
